Source: patent US6468989B1, “Gel compositions containing metronidazole” (Dow Pharmaceutical Sciences, priority 2000, dated 2002)
Like-named read-outs stand apart in the source and are kept apart here. One block for each compound: values may come before it.

Legend:
[1] = Solubility of imidazole compounds in purified water, 4% HPCD and 4% HECD; type: physicochemical
Description: Six sample solutions were prepared as described in Example 1 except as follows. Two groups of three sample solutions each were prepared. […] The solubility of each of the samples was determined as shown in Table 5 and was compared to the solubility of the imidazole in purified water without a solubility enhancer.

[2] = Solubility of metronidazole in aqueous solutions with different HPCD concentrations, estimated by solution stability; type: physicochemical; conditions: 1-day storage at room temperature followed by 1-day storage at 5° C.
Description: Various solutions of hydroxypropyl-beta-cyclodextrin (HPCD) were prepared by combining a quantity of HPCD in water to yield the desired concentration of HPCD between 1% w/w and 15% w/w. To each HPCD solution, an excess amount of metronidazole was added. The solutions were placed in a shaker bath at about 60° C. for about 2 hours or more. After shaking, the samples were permitted to cool to room temperature and were stored at 5° C. […]
In accordance with the invention, stable aqueous metronidazole at the following concentrations may be obtained with the following concentrations of HPCD as shown in Table 1 and FIG. 1.

[3] = Solubilization of metronidazole by HPCD, niacinamide and their combination (visual, 1 week storage); type: physicochemical
Description: HPCD and niacinamide solutions were prepared and the concentrations of each to obtain a stable 1% metronidazole solution at 5° C. were determined as 5% and 3%, respectively. Then various combinations of HPCD and niacinamide concentrations in aqueous solution containing 1% metronidazole were prepared as in Example 1.
In the combination solutions, HPCD concentration was in the range of 0% to 5% and the concentration range of niacinamide was 0% to 3%. The solutions were kept at room temperature and 5° C. for a week to assess the maintenance of the dissolved state.
For solubilization effects of HPCD and niacinamide combinations, the concentrations of HPCD and niacinamide were determined in 1% metronidazole solutions, which were clear with no precipitate. Metronidazole solubility was visually determined after a week storage. In order to evaluate the solubilization capacity of the HPCD and niacinamide combinations, the niacinamide concentration required to make 1.5% metronidazole in 5% HPCD solution was determined by keeping the solution at 5° C. for 1 week.

[4] = cited from earlier work

% w/w solubility [1]: less than 0.01 % w/w
Increase in solubility versus purified water [1]: not measurable
Structure (SMILES): CCC(C)n1ncn(-c2ccc(N3CCN(c4ccc(OCC5COC(Cn6cncn6)(c6ccc(Cl)cc6Cl)O5)cc4)CC3)cc2)c1=O (stereo not shown) [Itraconazole, itraconazole]

% w/w solubility [1]: less than 0.01 % w/w
% w/w solubility ([1]; 4% HECD): 0.03-0.05 % w/w
% w/w solubility ([1]; 4% HPCD): 0.01-0.03 % w/w
Structure (SMILES): CC(=O)N1CCN(c2ccc(OCC3COC(Cn4ccnc4)(c4ccc(Cl)cc4Cl)O3)cc2)CC1 (stereo not shown) [Ketoconazole, ketoconazole]

Solubility of MTZ ([2]; 0.0 % w/w HPCD): 0.7 % w/w
Solubility of MTZ ([2]; 2.0 % w/w HPCD): 1.0 % w/w
Solubility of MTZ ([2]; 8.0 % w/w HPCD): 1.5 % w/w
Solubility of MTZ ([2]; 10.0 % w/w HPCD): 2.0 % w/w
Solubility of MTZ ([2]; 15.0 % w/w HPCD): 2.5 % w/w
Appearance of solution ([1]; 4% HECD and metronidazole solution): became yellow
Appearance of solution ([1]; 4% HPCD and metronidazole solution): remained clear and colorless
Niacinamide concentration that permitted a 1.5% metronidazole solution ([3]; 5% HPCD): 6%
Time the 1.5% metronidazole solution stayed clear with no precipitate ([3]; 5% HPCD and 6% niacinamide, 5° C.): 1 week
Precipitation of 1.5% metronidazole solution ([3]; 5% HPCD, no niacinamide, room temperature): showed a precipitate
HPCD concentration required to make a stable 1% metronidazole aqueous solution ([3]; HPCD alone, 5° C. for 1 week): 5%
Precipitation of aqueous solution containing 1% metronidazole ([3]; HPCD reduced to 4% or less, 5° C. for 1 week): showed a precipitation formation
HPCD concentration giving a stable 1% MTZ solution ([3]; in combination with 0.5% niacinamide): 1.0%
Niacinamide concentration giving a stable 1% MTZ solution ([3]; in combination with 1.0% HPCD): 0.5%
Niacinamide concentration required to make 1% metronidazole aqueous solution ([3]; niacinamide alone, 5° C. for 1 week): 3%
Precipitation of aqueous solution containing 1% metronidazole ([3]; niacinamide reduced to 2% or less, 5° C. for 1 week): showed a precipitation formation
Structure (SMILES): Cc1ncc([N+](=O)[O-])n1CCO [Metronidazole, 1-(2-hydroxyethyl)-2-methyl-5-nitroimidazole]

Structure (SMILES): C[C@H]1O[C@@H](O[C@H]2[C@@H](O)C[C@H](O[C@H]3[C@@H](O)C[C@H](O[C@H]4CC[C@@]5(C)[C@H](CC[C@@H]6[C@@H]5C[C@@H](O)[C@]5(C)[C@@H](C7=CC(=O)OC7)CC[C@]65O)C4)O[C@@H]3C)O[C@@H]2C)C[C@H](O)[C@@H]1O [digoxin]
Water solubility combined with BCD relative to combined with HPCD [4]: five times more water soluble
